Experimental data taken from ChEMBL document CHEMBL1201862, “PubChem BioAssay data set” (2004).
Active and inactive are the calls of the source.

Experiments:
[1] = target: Tyrosine-protein phosphatase non-receptor type 11 (Homo sapiens, UniProt Q06124); test: PTPN11 enzyme inhibitors – biochemical, selectivity assay for STEP inhibitor project, dose response (AID 602367); type: functional; conditions: read-out: IC50_Mean
Genome polyprotein = Genome polyprotein (Hepatitis C virus, UniProt Q2Q167); test: disruption of hepatitis C core self-association – biochemical, TR-FRET, dose response (AID 2159); design: species or system Hepacivirus hominis;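 further: blocks dimerization of HCV core protein measured by TR-FRET between tagged core106 pairs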
[2] = target: Tyrosine-protein phosphatase non-receptor type 5 (Homo sapiens, UniProt P54829); test: PTPN5 enzyme inhibition – biochemical, fluorescence intensity, uHTS hits, confirmation (AID 602372); type: functional; conditions: read-out: IC50_Mean
[3] = target: Peroxisome proliferator-activated receptor gamma/Nuclear receptor coactivator 2 (Homo sapiens, UniProt P37231); test: (§1) TR-FRET dose response biochemical High Throughput Screening assay for agonists of the steroid receptor coactivator 2 (SRC-2) recruitment by the peroxisome proliferator-activated receptor gamma (PPAR gamma): non-selective agonists. [Related pubchem assays: 1297, 1032 ]; type: functional
[4] = target: Peroxisome proliferator-activated receptor gamma/Nuclear receptor coactivator 3 (Homo sapiens, UniProt P37231); test: as §1, with “3 (SRC-3)” for “2 (SRC-2)”, “1301 (Confirmation screen.), 1048 (Primary screen.)]” for “1297, 1032 ]”; type: functional
[5] = target: T1, Carboxy-terminal domain RNA polymerase II polypeptide A small phosphatase 1 (Homo sapiens, UniProt Q9GZU7); test: CTDSP1 inhibitors, concentration-response, biochemical, absorbance readout, ultra-high-throughput screen actives (AID 540297); type: functional
T1 sequence (Q9GZU7 whole entry): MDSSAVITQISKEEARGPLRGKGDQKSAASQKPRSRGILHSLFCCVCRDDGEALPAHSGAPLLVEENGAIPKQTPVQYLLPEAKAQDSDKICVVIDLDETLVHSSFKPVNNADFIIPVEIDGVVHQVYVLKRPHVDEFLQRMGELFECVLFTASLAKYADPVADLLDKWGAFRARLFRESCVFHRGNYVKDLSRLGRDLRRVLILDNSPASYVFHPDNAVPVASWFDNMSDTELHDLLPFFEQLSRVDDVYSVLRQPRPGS

[6] = target: Dual specificity protein phosphatase 3 (Homo sapiens, UniProt P51452); test: VHR phosphatase inhibition, dose response, selectivity assay for STEP inhibitor project, biochemical (AID 602374); type: functional; conditions: read-out: IC50_Mean
[7] = target: T2, Tyrosine-protein phosphatase non-receptor type 22 (Homo sapiens, UniProt Q9Y2R2); test: lymphoid phosphatase LYP inhibitors – biochemical, selectivity assay for STEP inhibitor project, dose response (AID 624241); type: functional
T2 sequence (Q9Y2R2 whole entry): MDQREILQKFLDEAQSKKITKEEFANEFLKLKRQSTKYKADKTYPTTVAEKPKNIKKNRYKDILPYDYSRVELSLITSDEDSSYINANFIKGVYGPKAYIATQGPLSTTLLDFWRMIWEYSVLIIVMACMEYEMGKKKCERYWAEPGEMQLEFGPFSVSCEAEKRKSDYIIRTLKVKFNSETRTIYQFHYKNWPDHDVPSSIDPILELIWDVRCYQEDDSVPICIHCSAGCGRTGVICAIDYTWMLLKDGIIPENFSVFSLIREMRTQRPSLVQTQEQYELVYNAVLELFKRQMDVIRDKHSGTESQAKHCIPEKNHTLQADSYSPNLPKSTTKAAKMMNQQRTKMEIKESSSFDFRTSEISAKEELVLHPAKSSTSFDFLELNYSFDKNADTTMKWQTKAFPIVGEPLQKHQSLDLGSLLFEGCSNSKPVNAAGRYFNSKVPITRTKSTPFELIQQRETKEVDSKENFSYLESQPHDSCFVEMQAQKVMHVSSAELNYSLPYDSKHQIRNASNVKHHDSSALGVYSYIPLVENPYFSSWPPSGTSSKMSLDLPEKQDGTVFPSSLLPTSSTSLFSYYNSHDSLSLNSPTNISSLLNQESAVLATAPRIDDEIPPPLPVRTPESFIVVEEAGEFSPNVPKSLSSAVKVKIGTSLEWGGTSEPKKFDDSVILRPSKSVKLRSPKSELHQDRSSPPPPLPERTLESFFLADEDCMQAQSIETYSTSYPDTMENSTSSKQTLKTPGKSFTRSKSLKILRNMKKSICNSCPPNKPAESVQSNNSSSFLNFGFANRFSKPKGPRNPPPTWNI

[8] = target: Peroxisome proliferator-activated receptor gamma/Nuclear receptor coactivator 1 (Homo sapiens, UniProt P37231); test: as §1, with “1 (SRC-1)” for “2 (SRC-2)”, “assays (depositor defined):AID1300, AID1808, AID504735, AID631]” for “assays: 1297, 1032 ]”; type: protein assay
Prothrombin = Prothrombin (Bos taurus, UniProt P00735); test: thrombin protease inhibitors – biochemical, fluorescence polarization, uHTS hits, dose response (AID 602369); type: functional
[9] = target: Dual specificity protein phosphatase 6 (Rattus norvegicus, UniProt Q64346); test: inhibition of rat DUSP6 enzyme activity – biochemical, in vitro, primary screen (AID 425)
[10] = target: 72 kDa type IV collagenase (Homo sapiens, UniProt P08253); test: Dose Response validation of uHTS RPN11 inhibitor hits using a MMP-2 Fluorescence assay.; type: functional
[11] = target: 26S proteasome non-ATPase regulatory subunit 14 (Homo sapiens, UniProt O00487); test: inhibition of proteasome subunit RPN11 – biochemical, fluorescence polarization, uHTS hits, confirmation (AID 602368); type: functional
Sequence of 26S proteasome non-ATPase regulatory subunit 14 (O00487 whole entry): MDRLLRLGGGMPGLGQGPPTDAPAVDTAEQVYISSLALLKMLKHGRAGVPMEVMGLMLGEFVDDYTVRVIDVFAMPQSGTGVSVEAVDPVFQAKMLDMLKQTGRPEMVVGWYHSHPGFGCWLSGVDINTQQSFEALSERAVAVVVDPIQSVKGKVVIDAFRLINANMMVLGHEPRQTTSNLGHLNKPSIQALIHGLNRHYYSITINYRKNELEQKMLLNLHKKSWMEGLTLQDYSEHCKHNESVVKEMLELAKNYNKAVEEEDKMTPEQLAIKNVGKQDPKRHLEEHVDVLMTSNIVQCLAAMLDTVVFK

Sequence of 72 kDa type IV collagenase (P08253 whole entry): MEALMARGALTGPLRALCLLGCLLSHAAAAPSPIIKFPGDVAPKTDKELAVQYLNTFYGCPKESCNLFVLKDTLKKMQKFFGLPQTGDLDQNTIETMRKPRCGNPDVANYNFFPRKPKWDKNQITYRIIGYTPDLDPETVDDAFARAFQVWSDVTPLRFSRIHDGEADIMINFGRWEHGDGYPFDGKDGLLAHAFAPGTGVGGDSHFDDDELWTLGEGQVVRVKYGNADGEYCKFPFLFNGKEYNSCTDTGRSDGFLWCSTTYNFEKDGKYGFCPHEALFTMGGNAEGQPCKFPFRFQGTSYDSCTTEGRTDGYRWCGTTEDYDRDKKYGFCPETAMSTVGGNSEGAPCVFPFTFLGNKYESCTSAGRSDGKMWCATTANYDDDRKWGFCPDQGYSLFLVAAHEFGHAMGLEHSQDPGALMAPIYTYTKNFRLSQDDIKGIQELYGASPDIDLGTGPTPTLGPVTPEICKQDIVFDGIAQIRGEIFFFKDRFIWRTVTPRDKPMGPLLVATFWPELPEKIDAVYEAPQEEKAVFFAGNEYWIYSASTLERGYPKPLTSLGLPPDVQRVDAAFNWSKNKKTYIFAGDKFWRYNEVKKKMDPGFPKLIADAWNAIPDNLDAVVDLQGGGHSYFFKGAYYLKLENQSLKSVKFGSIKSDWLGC
Sequence of Genome polyprotein (Q2Q167 whole entry): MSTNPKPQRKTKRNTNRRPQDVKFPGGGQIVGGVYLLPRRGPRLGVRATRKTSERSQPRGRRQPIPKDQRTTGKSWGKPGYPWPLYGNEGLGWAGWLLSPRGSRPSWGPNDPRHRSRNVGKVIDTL
Sequence of Dual specificity protein phosphatase 6 (Q64346 whole entry): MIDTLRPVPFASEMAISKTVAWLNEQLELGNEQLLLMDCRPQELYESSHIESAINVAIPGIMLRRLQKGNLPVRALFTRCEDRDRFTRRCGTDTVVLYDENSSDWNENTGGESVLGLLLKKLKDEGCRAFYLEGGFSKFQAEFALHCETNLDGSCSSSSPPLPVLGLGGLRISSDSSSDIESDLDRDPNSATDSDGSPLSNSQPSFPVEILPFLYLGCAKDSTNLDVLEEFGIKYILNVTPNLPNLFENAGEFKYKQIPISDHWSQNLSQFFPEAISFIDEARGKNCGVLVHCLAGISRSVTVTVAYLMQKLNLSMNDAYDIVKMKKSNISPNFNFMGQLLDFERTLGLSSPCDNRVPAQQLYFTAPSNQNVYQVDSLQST
Sequence of Tyrosine-protein phosphatase non-receptor type 5 (P54829 whole entry): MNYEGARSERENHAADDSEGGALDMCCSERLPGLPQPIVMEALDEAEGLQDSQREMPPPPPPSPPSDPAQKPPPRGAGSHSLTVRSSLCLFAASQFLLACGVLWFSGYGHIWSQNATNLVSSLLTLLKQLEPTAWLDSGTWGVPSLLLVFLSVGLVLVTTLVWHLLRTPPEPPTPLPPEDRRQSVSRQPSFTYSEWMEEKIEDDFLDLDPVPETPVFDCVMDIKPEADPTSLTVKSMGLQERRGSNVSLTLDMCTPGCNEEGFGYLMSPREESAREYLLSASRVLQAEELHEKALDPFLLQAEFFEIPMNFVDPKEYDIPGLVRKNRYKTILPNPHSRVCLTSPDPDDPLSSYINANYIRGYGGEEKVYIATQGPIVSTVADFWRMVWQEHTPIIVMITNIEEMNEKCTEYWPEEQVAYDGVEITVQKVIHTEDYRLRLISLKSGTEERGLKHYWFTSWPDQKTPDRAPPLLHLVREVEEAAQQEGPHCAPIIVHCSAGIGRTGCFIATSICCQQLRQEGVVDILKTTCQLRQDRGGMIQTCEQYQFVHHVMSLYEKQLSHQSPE
Sequence of Peroxisome proliferator-activated receptor gamma/Nuclear receptor coactivator 2 (P37231 whole entry): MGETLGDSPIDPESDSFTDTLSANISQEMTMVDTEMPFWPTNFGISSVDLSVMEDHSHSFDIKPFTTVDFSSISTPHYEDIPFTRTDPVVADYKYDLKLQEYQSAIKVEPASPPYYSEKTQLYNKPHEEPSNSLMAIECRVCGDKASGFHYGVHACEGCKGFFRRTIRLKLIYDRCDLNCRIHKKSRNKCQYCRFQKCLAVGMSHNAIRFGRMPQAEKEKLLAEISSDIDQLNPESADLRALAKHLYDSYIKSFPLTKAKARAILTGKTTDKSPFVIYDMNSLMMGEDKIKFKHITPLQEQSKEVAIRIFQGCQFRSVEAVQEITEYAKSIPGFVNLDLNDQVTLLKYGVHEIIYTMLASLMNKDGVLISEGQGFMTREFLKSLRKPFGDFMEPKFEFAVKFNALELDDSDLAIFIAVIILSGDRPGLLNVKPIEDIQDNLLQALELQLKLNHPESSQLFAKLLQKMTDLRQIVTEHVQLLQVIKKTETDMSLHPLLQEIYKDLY
Sequence of Peroxisome proliferator-activated receptor gamma/Nuclear receptor coactivator 2 (Q15596 whole entry, further chain): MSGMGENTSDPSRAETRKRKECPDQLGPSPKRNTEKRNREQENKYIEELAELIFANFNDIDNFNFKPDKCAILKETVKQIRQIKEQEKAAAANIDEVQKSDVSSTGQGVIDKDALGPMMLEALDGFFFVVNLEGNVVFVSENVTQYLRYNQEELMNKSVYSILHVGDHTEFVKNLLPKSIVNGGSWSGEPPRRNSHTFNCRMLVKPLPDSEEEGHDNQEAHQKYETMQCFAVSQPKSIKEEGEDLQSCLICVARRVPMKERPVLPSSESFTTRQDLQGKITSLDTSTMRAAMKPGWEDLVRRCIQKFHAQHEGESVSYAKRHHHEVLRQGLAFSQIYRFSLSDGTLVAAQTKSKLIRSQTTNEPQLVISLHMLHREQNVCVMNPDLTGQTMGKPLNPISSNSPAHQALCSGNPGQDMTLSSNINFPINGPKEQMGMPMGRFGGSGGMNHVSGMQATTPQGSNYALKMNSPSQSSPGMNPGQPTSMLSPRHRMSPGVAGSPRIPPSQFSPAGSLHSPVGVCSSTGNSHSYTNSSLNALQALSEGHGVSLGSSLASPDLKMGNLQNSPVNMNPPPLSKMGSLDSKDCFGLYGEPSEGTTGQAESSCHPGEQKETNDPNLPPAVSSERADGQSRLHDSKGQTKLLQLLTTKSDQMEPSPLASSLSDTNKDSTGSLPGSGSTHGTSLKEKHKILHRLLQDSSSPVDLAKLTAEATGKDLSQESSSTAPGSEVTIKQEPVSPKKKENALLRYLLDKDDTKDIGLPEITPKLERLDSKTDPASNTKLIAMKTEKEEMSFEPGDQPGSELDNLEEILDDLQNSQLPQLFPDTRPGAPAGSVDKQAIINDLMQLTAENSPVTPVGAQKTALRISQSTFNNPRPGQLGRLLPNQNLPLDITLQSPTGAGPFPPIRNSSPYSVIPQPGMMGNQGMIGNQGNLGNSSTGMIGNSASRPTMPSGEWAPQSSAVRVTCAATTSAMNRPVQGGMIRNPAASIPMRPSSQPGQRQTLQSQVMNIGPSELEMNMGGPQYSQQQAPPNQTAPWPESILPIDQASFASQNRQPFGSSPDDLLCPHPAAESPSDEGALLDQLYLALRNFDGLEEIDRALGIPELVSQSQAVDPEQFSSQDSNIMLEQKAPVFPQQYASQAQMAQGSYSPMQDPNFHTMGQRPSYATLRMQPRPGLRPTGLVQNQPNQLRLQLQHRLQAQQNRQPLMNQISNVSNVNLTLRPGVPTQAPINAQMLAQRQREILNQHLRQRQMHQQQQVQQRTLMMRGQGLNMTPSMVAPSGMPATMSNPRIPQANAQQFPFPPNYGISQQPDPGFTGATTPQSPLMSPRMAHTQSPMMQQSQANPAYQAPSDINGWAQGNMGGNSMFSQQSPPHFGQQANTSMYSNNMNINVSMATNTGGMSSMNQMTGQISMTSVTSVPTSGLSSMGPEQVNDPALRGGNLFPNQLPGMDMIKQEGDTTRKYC
Sequence of Dual specificity protein phosphatase 3 (P51452 whole entry): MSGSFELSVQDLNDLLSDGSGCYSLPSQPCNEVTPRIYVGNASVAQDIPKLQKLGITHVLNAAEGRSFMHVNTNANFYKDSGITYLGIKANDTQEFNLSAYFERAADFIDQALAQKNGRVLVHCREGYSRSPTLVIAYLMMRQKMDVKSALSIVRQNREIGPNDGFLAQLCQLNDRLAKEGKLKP

- IC50 [1]: 1.71 µM (active)
- IC50 (Genome polyprotein): > 49.8 µM (not active)
- IC50 [2]: 4.17 µM (active)
- EC50 [3]: 21.7 µM (not active)
- EC50 [4]: > 79.4 µM (not active)
- IC50 [5]: 3.16 µM (active)
- IC50 [6]: 1.21 µM (active)
- IC50 [7]: 96.2 µM (inactive)
- EC50 [8]: 32.2 µM (inactive)
- IC50 (Prothrombin): > 100 µM (inactive)
- IC50 [9]: > 10 µM (not active)
- IC50 [10]: 5.79 µM (active)
- IC50 [11]: 17.6 µM (active)
Structure (SMILES): Cc1cccc(Nc2nn3c(=O)c4ccccc4nc3s2)c1
